Experimental data from patent publication US6737383B1, “Herbicidal oxadiazolidines” (priority 1999, dated 2004).

How the values were obtained:
duck salad = assay: Test B flood test duck salad; assay type: in vivo, Heteranthera limosa
In short: (§1)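 Plants were grown to the 2-leaf stage before treatment with test chemical, then held in a greenhouse for twelve to sixteen days. Injury was visually rated against untreated controls on a 0–10 scale, where 0 is no effect and 10 is complete control.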

giant foxtail = assay: Test B pre/postemergence giant foxtail; assay type: in vivo, Setaria faberii
In short: (§2)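 Herbicidal effect was estimated by eye on a ten-point control scale after plants spent twelve to sixteen days in a greenhouse following soil or foliar treatment. Foliar sprays targeted plants at one to four leaves; all doses were formulated in a non-phytotoxic solvent with surfactant.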

pigweed = assay: Test B pre/postemergence pigweed; assay type: in vivo, Amaranthus retroflexus
In short: as §2

sugar beet = assay: Test B pre/postemergence sugar beet; assay type: in vivo, Beta vulgaris
In short: as §2

rice = assay: Test B flood test rice; assay type: in vivo, Oryza sativa
In short: as §1

wheat = assay: Test B pre/postemergence wheat; assay type: in vivo, Triticum aestivum
In short: as §2

wild oat = assay: Test B pre/postemergence wild oat; assay type: in vivo, Avena fatua
In short: as §2

smallflower flatsedge = assay: Test B flood test smallflower flatsedge; assay type: in vivo, Cyperus difformis
In short: as §1

cocklebur = assay: Test B pre/postemergence cocklebur; assay type: in vivo, Xanthium strumarium
In short: as §2

corn = assay: Test B pre/postemergence corn; assay type: in vivo, Zea mays
In short: as §2

velvetleaf = assay: Test B pre/postemergence velvetleaf; assay type: in vivo, Abutilon theophrasti
In short: as §2

crabgrass = assay: Test B pre/postemergence crabgrass; assay type: in vivo, Digitaria sanguinalis
In short: as §2

surinam grass = assay: Test B pre/postemergence surinam grass; assay type: in vivo, Brachiaria decumbens
In short: as §2

soybean = assay: Test B pre/postemergence soybean; assay type: in vivo, Glycine max
In short: as §2

blackgrass = assay: Test B pre/postemergence blackgrass; assay type: in vivo, Alopecurus myosuroides
In short: as §2

rape = assay: Test B pre/postemergence rape; assay type: in vivo, Brassica napus
In short: as §2

[1] = Rate 62 g/ha, headed Pre-emergence (flood test species), scale 0 to 10 (0 no effect, 10 complete control)
[2] = Rate 125 g/ha, Pre-emergence, flood test species, scale 0 to 10 where 0 is no effect and 10 is complete control
[3] = Rate 250 g/ha, Pre-emergence, flood-test species, scale 0 to 10, 0 is no effect, 10 is complete control
[4] = Rate 500 g/ha, Pre-emergence, flood test species, scale 0 to 10 (0 no effect, 10 complete control)
[5] = Preemergence, Rate 62 g/ha, scale of 0 to 10 where 0 is no effect and 10 is complete control
[6] = Preemergence, Rate 250 g/ha, scale of 0 to 10 where 0 is no effect and 10 is complete control
[7] = Preemergence, Rate 500 g/ha, scale of 0 to 10 where 0 is no effect and 10 is complete control
[8] = Rate 62 g/ha, Postemergence, scale 0 to 10 (0 no effect, 10 complete control)
[9] = Rate 125 g/ha, Postemergence, scale of 0 to 10 where 0 is no effect and 10 is complete control
[10] = Rate 125 g/ha, Preemergence, scale of 0 to 10 where 0 is no effect and 10 is complete control
[11] = Rate 250 g/ha, Postemergence, scale of 0 to 10 where 0 is no effect and 10 is complete control
[12] = Rate 500 g/ha, Postemergence, scale 0 to 10, 0 no effect, 10 complete control

In the case of `Cc1ccccc1-n1c(=O)on(C(=O)N(c2ccc3c(c2)CCC3)C(C)C)c1=O` [Compound 278], the “Ducksalad plant response rating” value (duck salad; [1]) was 0, the “Ducksalad plant response rating” value (duck salad; [2]) was 0 and the “Ducksalad plant response rating” value (duck salad; [3]) was 0. The “Ducksalad plant response rating” value (duck salad; [4]) was 0, the “Giant foxtail plant response rating” value (giant foxtail; [5]) was 0 and the “Giant foxtail plant response rating” value (giant foxtail; [6]) was 2. For the same compound, the “Plant response rating, Giant foxtail” value (giant foxtail; [7]) was 8, the “Giant foxtail plant response rating” value (giant foxtail; [8]) was 0 and the “Giant foxtail plant response rating” value (giant foxtail; [9]) was 0. The “Giant foxtail plant response rating” value (giant foxtail; [10]) was 2, the “Plant response rating, Giant foxtail” value (giant foxtail; [11]) was 0 and the “Giant foxtail plant response rating” value (giant foxtail; [12]) was 0. For the same compound, the “Redroot pigweed plant response rating” value (pigweed; [5]) was 0, the “Redroot pigweed plant response rating” value (pigweed; [6]) was 0 and the “Plant response rating, Redroot pigweed” value (pigweed; [7]) was 0. For the same compound, the “Redroot pigweed plant response rating” value (pigweed; [8]) was 0, the “Redroot pigweed plant response rating” value (pigweed; [9]) was 0 and the “Redroot pigweed plant response rating” value (pigweed; [10]) was 0. For the same compound, the “Plant response rating, Redroot pigweed” value (pigweed; [11]) was 0, the “Redroot pigweed plant response rating” value (pigweed; [12]) was 4 and the “Sugarbeets plant response rating” value (sugar beet; [5]) was 0. For the same compound, the “Sugarbeets plant response rating” value (sugar beet; [6]) was 0, the “Plant response rating, Sugarbeets” value (sugar beet; [7]) was 0 and the “Sugarbeets plant response rating” value (sugar beet; [8]) was 0. For the same compound, the “Sugarbeets plant response rating” value (sugar beet; [9]) was 0, the “Sugarbeets plant response rating” value (sugar beet; [10]) was 0 and the “Plant response rating, Sugarbeets” value (sugar beet; [11]) was 0. For the same compound, the “Sugarbeets plant response rating” value (sugar beet; [12]) was 0, the “Rice plant response rating” value (rice; [1]) was 0 and the “Rice plant response rating” value (rice; [2]) was 0. The “Rice plant response rating” value (rice; [3]) was 0, the “Rice plant response rating” value (rice; [4]) was 0 and the “Wheat plant response rating” value (wheat; [5]) was 0. The “Wheat plant response rating” value (wheat; [6]) was 0, the “Plant response rating, Wheat” value (wheat; [7]) was 0 and the “Wheat plant response rating” value (wheat; [8]) was 0. The “Wheat plant response rating” value (wheat; [9]) was 0, the “Wheat plant response rating” value (wheat; [10]) was 0 and the “Plant response rating, Wheat” value (wheat; [11]) was 0. For the same compound, the “Wheat plant response rating” value (wheat; [12]) was 0, the “Wild oats plant response rating” value (wild oat; [5]) was 0 and the “Wild oats plant response rating” value (wild oat; [6]) was 0. The “Plant response rating, Wild oats” value (wild oat; [7]) was 0, the “Wild oats plant response rating” value (wild oat; [8]) was 0 and the “Wild oats plant response rating” value (wild oat; [9]) was 0. For the same compound, the “Plant response rating, Wild oats” value (wild oat; [11]) was 0, the “Wild oats plant response rating” value (wild oat; [12]) was 0 and the “S. Flatsedge plant response rating” value (smallflower flatsedge; [1]) was 0. The “S. Flatsedge plant response rating” value (smallflower flatsedge; [2]) was 0, the “S. Flatsedge plant response rating” value (smallflower flatsedge; [3]) was 0 and the “S. Flatsedge plant response rating” value (smallflower flatsedge; [4]) was 0. The “Cocklebur plant response rating” value (cocklebur; [5]) was 0, the “Cocklebur plant response rating” value (cocklebur; [6]) was 0 and the “Plant response rating, Cocklebur” value (cocklebur; [7]) was 0. For the same compound, the “Cocklebur plant response rating” value (cocklebur; [8]) was 0, the “Cocklebur plant response rating” value (cocklebur; [9]) was 0 and the “Cocklebur plant response rating” value (cocklebur; [10]) was 0. The “Plant response rating, Cocklebur” value (cocklebur; [11]) was 0, the “Cocklebur plant response rating” value (cocklebur; [12]) was 3 and the “Corn plant response rating” value (corn; [5]) was 0. The “Corn plant response rating” value (corn; [6]) was 0, the “Plant response rating, Corn” value (corn; [7]) was 0 and the “Corn plant response rating” value (corn; [8]) was 0. The “Corn plant response rating” value (corn; [9]) was 0, the “Corn plant response rating” value (corn; [10]) was 0 and the “Plant response rating, Corn” value (corn; [11]) was 0. For the same compound, the “Corn plant response rating” value (corn; [12]) was 0, the “Velvetleaf plant response rating” value (velvetleaf; [5]) was 0 and the “Velvetleaf plant response rating” value (velvetleaf; [6]) was 0. For the same compound, the “Plant response rating, Velvetleaf” value (velvetleaf; [7]) was 0, the “Velvetleaf plant response rating” value (velvetleaf; [8]) was 0 and the “Velvetleaf plant response rating” value (velvetleaf; [9]) was 0. For the same compound, the “Velvetleaf plant response rating” value (velvetleaf; [10]) was 0, the “Plant response rating, Velvetleaf” value (velvetleaf; [11]) was 0 and the “Velvetleaf plant response rating” value (velvetleaf; [12]) was 2. For the same compound, the “Crabgrass plant response rating” value (crabgrass; [5]) was 0, the “Crabgrass plant response rating” value (crabgrass; [6]) was 2 and the “Plant response rating, Crabgrass” value (crabgrass; [7]) was 4. The “Crabgrass plant response rating” value (crabgrass; [8]) was 0, the “Crabgrass plant response rating” value (crabgrass; [9]) was 0 and the “Crabgrass plant response rating” value (crabgrass; [10]) was 1. For the same compound, the “Plant response rating, Crabgrass” value (crabgrass; [11]) was 0, the “Crabgrass plant response rating” value (crabgrass; [12]) was 0 and the “B. signalgrass plant response rating” value (surinam grass; [5]) was 0. For the same compound, the “B. signalgrass plant response rating” value (surinam grass; [6]) was 0, the “Plant response rating, B. signalgrass” value (surinam grass; [7]) was 0 and the “B. signalgrass plant response rating” value (surinam grass; [8]) was 0. The “B. signalgrass plant response rating” value (surinam grass; [9]) was 0, the “B. signalgrass plant response rating” value (surinam grass; [10]) was 0 and the “Plant response rating, B. signalgrass” value (surinam grass; [11]) was 0. For the same compound, the “B. signalgrass plant response rating” value (surinam grass; [12]) was 0, the “Soybean plant response rating” value (soybean; [5]) was 0 and the “Soybean plant response rating” value (soybean; [6]) was 0. For the same compound, the “Plant response rating, Soybean” value (soybean; [7]) was 0, the “Soybean plant response rating” value (soybean; [8]) was 1 and the “Soybean plant response rating” value (soybean; [9]) was 1. For the same compound, the “Soybean plant response rating” value (soybean; [10]) was 0, the “Plant response rating, Soybean” value (soybean; [11]) was 1 and the “Soybean plant response rating” value (soybean; [12]) was 1. For the same compound, the “Blackgrass plant response rating” value (blackgrass; [5]) was 0, the “Blackgrass plant response rating” value (blackgrass; [6]) was 0 and the “Plant response rating, Blackgrass” value (blackgrass; [7]) was 0. For the same compound, the “Blackgrass plant response rating” value (blackgrass; [8]) was 0, the “Blackgrass plant response rating” value (blackgrass; [9]) was 0 and the “Blackgrass plant response rating” value (blackgrass; [10]) was 0. The “Plant response rating, Blackgrass” value (blackgrass; [11]) was 0, the “Blackgrass plant response rating” value (blackgrass; [12]) was 0 and the “Rape plant response rating” value (rape; [5]) was 0. For the same compound, the “Rape plant response rating” value (rape; [6]) was 0, the “Plant response rating, Rape” value (rape; [7]) was 0 and the “Rape plant response rating” value (rape; [8]) was 0. The “Rape plant response rating” value (rape; [9]) was 0, the “Rape plant response rating” value (rape; [10]) was 0 and the “Plant response rating, Rape” value (rape; [11]) was 0. The “Rape plant response rating” value (rape; [12]) was 0.
